Experimental data published in article PMC7531004, “Discovery of gramicidin A analogues with altered activities by multidimensional screening of a one-bead-one-compound library” (Nature Communications, 2020).
Where a SMILES comes first, the peptide text is derived from it. [ ]: non-standard residue; d: D form. The star is where a group is joined. NHCH2CH2OH = OCCN*; For = O=C*

Legend:
[1] = system: Streptococcus pyogenes SSI-9; experiment: Antibacterial activity assay of bead-derived peptides (three concentrations); format: cell-based; parameters: key: +++: inhibition by the 640-fold diluted peptide solution; ++: inhibition by the 160-fold diluted solution; +: inhibition by the 40-fold diluted solution; -: no inhibition; conditions: S. pyogenes, bead-derived peptide solution, three concentrations
Procedure, shortened: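 Library peptide stock applied undiluted, 4-fold and 16-fold diluted in DMSO to S. pyogenes SSI-9 (2 × 10^5 CFU) in cation-adjusted Mueller Hinton broth with 5% laked horse blood. After 18 h at 37 °C, growth judged by visible cell precipitation.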

[2] = cell viability/%
Procedure, shortened: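 P388 cells at 1 × 10^4 cells/mL (final) were exposed to library peptides (stocks diluted 250-fold in RPMI1640/10% FBS) for 92 h at 37 °C, 5% CO2. Viable cells were counted by WST-1/1-methoxy PMS (4 h), absorbance 415 nm, and expressed as cell viability (%).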

[3] = H+/Na+ transport assay of bead-derived peptides (one-point); format: biochemical; parameters: key: relative activity; mean of two control wells = 1.00; conditions: bead-derived peptide solution, EYPC/EYPG LUVs;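 note: relative to parent gramicidin A activity set to 1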
Procedure, shortened: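 One-point screen: peptide + pyranine-loaded LUVs, 30 min RT with vortexing, 96-well. Read-out is fluorescence intensity scaled as 100 × (Ix – I0)/(Imax – I0). Imax from Triton X-100, I0 from untreated vesicles, and the mean of the two control wells is set to 1.00.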

SMILES	antibacterial activity [1]	viability [2] [%]	H+/Na+ transport activity normalized against the value of 1 (1.00) [3]
CNC(=O)C[C@@H](NC(=O)[C@H](Cc1c[nH]c2ccccc12)NC(=O)[C@H](NC(=O)[C@H](Cc1c[nH]c2ccccc12)NC(=O)[C@@H](CC(C)C)NC(=O)[C@H](Cc1c[nH]c2ccccc12)NC(=O)[C@@H](CC(C)C)NC(=O)[C@@H](NC(=O)[C@H](NC(=O)[C@H](C)NC(=O)[C@H](NC(=O)[C@H](C)NC(=O)CNC(=O)[C@@H](NC=O)C(C)C)C(C)C)C(C)C)C(C)C)C(C)C)C(=O)N[C@@H](Cc1c[nH]c2ccccc12)C(=O)NCCO [compound 3903] (For-VGA[dV]A[dV]V[dL]W[dL]W[dV]W[dD](NHMe)W-NHCH2CH2OH)	-	100	1.10
CNC(=O)C[C@@H](NC(=O)[C@@H](NC(=O)[C@@H](CC(C)C)NC(=O)[C@H](C)NC(=O)[C@@H](CC(C)C)NC(=O)[C@H](C)NC(=O)CNC(=O)[C@@H](NC=O)C(C)C)C(C)C)C(=O)N[C@@H](Cc1c[nH]c2ccccc12)C(=O)N[C@@H](C(=O)N[C@@H](Cc1c[nH]c2ccccc12)C(=O)N[C@@H](C(=O)N[C@@H](Cc1c[nH]c2ccccc12)C(=O)N[C@@H](C(=O)N[C@@H](Cc1c[nH]c2ccccc12)C(=O)NCCO)C(C)C)C(C)C)C(C)C [compound 3931] (For-VGA[dL]A[dL]V[dD](NHMe)W[dV]W[dV]W[dV]W-NHCH2CH2OH)	-	100	1.16
CC(C)C[C@@H](NC(=O)[C@H](C)NC(=O)[C@H](NC(=O)[C@H](C)NC(=O)CNC(=O)[C@@H](NC=O)C(C)C)C(C)C)C(=O)N[C@H](C(=O)N[C@@H](C(=O)N[C@@H](Cc1c[nH]c2ccccc12)C(=O)N[C@H](CC(C)C)C(=O)N[C@@H](Cc1c[nH]c2ccccc12)C(=O)N[C@H](CC(C)C)C(=O)N[C@@H](Cc1c[nH]c2ccccc12)C(=O)N[C@H](CC(C)C)C(=O)N[C@@H](Cc1c[nH]c2ccccc12)C(=O)NCCO)[C@H](C)O)C(C)C [compound 3956] (For-VGA[dV]A[dL]V[dT]W[dL]W[dL]W[dL]W-NHCH2CH2OH)	+	100	1.12
CNC(=O)C[C@@H](NC(=O)[C@@H](NC(=O)[C@H](NC(=O)[C@H](C)NC(=O)[C@@H](CC(C)C)NC(=O)[C@H](C)NC(=O)CNC(=O)[C@@H](NC=O)C(C)C)C(C)C)C(C)C)C(=O)N[C@@H](Cc1c[nH]c2ccccc12)C(=O)N[C@H](CC(C)C)C(=O)N[C@@H](Cc1c[nH]c2ccccc12)C(=O)N[C@H](CC(C)C)C(=O)N[C@@H](Cc1c[nH]c2ccccc12)C(=O)N[C@H](CC(C)C)C(=O)N[C@@H](Cc1c[nH]c2ccccc12)C(=O)NCCO [compound 4143] (For-VGA[dL]A[dV]V[dD](NHMe)W[dL]W[dL]W[dL]W-NHCH2CH2OH)	-	100	1.22
CNC(=O)C[C@@H](NC(=O)[C@@H](NC(=O)[C@@H](CC(C)C)NC(=O)[C@H](C)NC(=O)[C@@H](CC(C)C)NC(=O)[C@H](C)NC(=O)CNC(=O)[C@@H](NC=O)C(C)C)C(C)C)C(=O)N[C@@H](Cc1c[nH]c2ccccc12)C(=O)N[C@H](CC(C)C)C(=O)N[C@@H](Cc1c[nH]c2ccccc12)C(=O)N[C@H](CC(C)C)C(=O)N[C@@H](Cc1c[nH]c2ccccc12)C(=O)N[C@@H](C(=O)N[C@@H](Cc1c[nH]c2ccccc12)C(=O)NCCO)C(C)C [compound 4186] (For-VGA[dL]A[dL]V[dD](NHMe)W[dL]W[dL]W[dV]W-NHCH2CH2OH)	-	98.7	1.44
CC(C)C[C@@H](NC(=O)[C@H](C)NC(=O)[C@H](NC(=O)[C@H](C)NC(=O)CNC(=O)[C@@H](NC=O)C(C)C)C(C)C)C(=O)N[C@H](C(=O)N[C@@H](C(=O)N[C@@H](Cc1c[nH]c2ccccc12)C(=O)N[C@H](CC(C)C)C(=O)N[C@@H](Cc1c[nH]c2ccccc12)C(=O)N[C@@H](C(=O)N[C@@H](Cc1c[nH]c2ccccc12)C(=O)N[C@H](CC(C)C)C(=O)N[C@@H](Cc1c[nH]c2ccccc12)C(=O)NCCO)[C@H](C)O)[C@H](C)O)C(C)C [compound 4195] (For-VGA[dV]A[dL]V[dT]W[dL]W[dT]W[dL]W-NHCH2CH2OH)	-	90.6	1.19
CNC(=O)C[C@@H](NC(=O)[C@H](Cc1c[nH]c2ccccc12)NC(=O)[C@@H](CC(C)C)NC(=O)[C@H](Cc1c[nH]c2ccccc12)NC(=O)[C@@H](CC(C)C)NC(=O)[C@@H](NC(=O)[C@H](NC(=O)[C@H](C)NC(=O)[C@H](NC(=O)[C@H](C)NC(=O)CNC(=O)[C@@H](NC=O)C(C)C)C(C)C)C(C)C)C(C)C)C(=O)N[C@@H](Cc1c[nH]c2ccccc12)C(=O)N[C@H](CC(C)C)C(=O)N[C@@H](Cc1c[nH]c2ccccc12)C(=O)NCCO [compound 4203] (For-VGA[dV]A[dV]V[dL]W[dL]W[dD](NHMe)W[dL]W-NHCH2CH2OH)	-	100	1.16
CC(C)[C@H](NC=O)C(=O)NCC(=O)N[C@@H](C)C(=O)N[C@@H](C(=O)N[C@@H](C)C(=O)N[C@@H](C(=O)N[C@H](C(=O)N[C@@H](C(=O)N[C@@H](Cc1c[nH]c2ccccc12)C(=O)N[C@@H](C(=O)N[C@@H](Cc1c[nH]c2ccccc12)C(=O)N[C@@H](C(=O)N[C@@H](Cc1c[nH]c2ccccc12)C(=O)N[C@@H](C(=O)N[C@@H](Cc1c[nH]c2ccccc12)C(=O)NCCO)C(C)C)C(C)C)C(C)C)C(C)C)C(C)C)C(C)C)C(C)C [compound 4223] (For-VGA[dV]A[dV]V[dV]W[dV]W[dV]W[dV]W-NHCH2CH2OH)	+	95.6	1.09
CC(C)C[C@@H](NC(=O)[C@H](C)NC(=O)[C@H](NC(=O)[C@H](C)NC(=O)CNC(=O)[C@@H](NC=O)C(C)C)C(C)C)C(=O)N[C@H](C(=O)N[C@@H](C(=O)N[C@@H](Cc1c[nH]c2ccccc12)C(=O)N[C@@H](C(=O)N[C@@H](Cc1c[nH]c2ccccc12)C(=O)N[C@@H](C(=O)N[C@@H](Cc1c[nH]c2ccccc12)C(=O)N[C@@H](C(=O)N[C@@H](Cc1c[nH]c2ccccc12)C(=O)NCCO)C(C)C)[C@H](C)O)C(C)C)C(C)C)C(C)C [compound 4258] (For-VGA[dV]A[dL]V[dV]W[dV]W[dT]W[dV]W-NHCH2CH2OH)	-	85.9	1.00
CC(C)C[C@@H](NC(=O)[C@H](C)NC(=O)[C@H](NC(=O)[C@H](C)NC(=O)CNC(=O)[C@@H](NC=O)C(C)C)C(C)C)C(=O)N[C@H](C(=O)N[C@H](CC(C)C)C(=O)N[C@@H](Cc1c[nH]c2ccccc12)C(=O)N[C@H](CC(C)C)C(=O)N[C@@H](Cc1c[nH]c2ccccc12)C(=O)N[C@@H](C(=O)N[C@@H](Cc1c[nH]c2ccccc12)C(=O)N[C@@H](C(=O)N[C@@H](Cc1c[nH]c2ccccc12)C(=O)NCCO)[C@H](C)O)[C@H](C)O)C(C)C [compound 4322] (For-VGA[dV]A[dL]V[dL]W[dL]W[dT]W[dT]W-NHCH2CH2OH)	-	100	1.05
CC(C)C[C@@H](NC(=O)[C@H](C)NC(=O)CNC(=O)[C@@H](NC=O)C(C)C)C(=O)N[C@@H](C)C(=O)N[C@@H](C(=O)N[C@H](C(=O)N[C@H](CC(C)C)C(=O)N[C@@H](Cc1c[nH]c2ccccc12)C(=O)N[C@H](CC(C)C)C(=O)N[C@@H](Cc1c[nH]c2ccccc12)C(=O)N[C@@H](C(=O)N[C@@H](Cc1c[nH]c2ccccc12)C(=O)N[C@@H](C(=O)N[C@@H](Cc1c[nH]c2ccccc12)C(=O)NCCO)[C@H](C)O)[C@H](C)O)C(C)C)C(C)C [compound 4328] (For-VGA[dL]A[dV]V[dL]W[dL]W[dT]W[dT]W-NHCH2CH2OH)	+	100	1.13
CC(C)C[C@@H](NC(=O)[C@H](Cc1c[nH]c2ccccc12)NC(=O)[C@H](NC(=O)[C@@H](NC(=O)[C@H](NC(=O)[C@H](C)NC(=O)[C@H](NC(=O)[C@H](C)NC(=O)CNC(=O)[C@@H](NC=O)C(C)C)[C@H](C)O)C(C)C)C(C)C)C(C)C)C(=O)N[C@@H](Cc1c[nH]c2ccccc12)C(=O)N[C@H](CC(C)C)C(=O)N[C@@H](Cc1c[nH]c2ccccc12)C(=O)N[C@@H](C(=O)N[C@@H](Cc1c[nH]c2ccccc12)C(=O)NCCO)C(C)C [compound 4452] (For-VGA[dT]A[dV]V[dV]W[dL]W[dL]W[dV]W-NHCH2CH2OH)	-	100	1.30
CC(C)C[C@@H](NC(=O)[C@H](Cc1c[nH]c2ccccc12)NC(=O)[C@H](NC(=O)[C@@H](NC(=O)[C@H](NC(=O)[C@H](C)NC(=O)[C@H](NC(=O)[C@H](C)NC(=O)CNC(=O)[C@@H](NC=O)C(C)C)C(C)C)C(C)C)C(C)C)C(C)C)C(=O)N[C@@H](Cc1c[nH]c2ccccc12)C(=O)N[C@H](CC(C)C)C(=O)N[C@@H](Cc1c[nH]c2ccccc12)C(=O)N[C@@H](C(=O)N[C@@H](Cc1c[nH]c2ccccc12)C(=O)NCCO)[C@H](C)O [compound 4603] (For-VGA[dV]A[dV]V[dV]W[dL]W[dL]W[dT]W-NHCH2CH2OH)	++	100	1.12
